Series [1] relates to NRK49F cells. Kind of series: Cell viability MTT assay in myofibroblasts. Type of series: cell-based, rat. The following applies: 24-hours treatment, commonly used doses 1-10 μM. On the technique in general: Tetrazolium assays rely on reduction of a dye to a coloured formazan, in cell work by metabolically active cells.
The subject of series [2] is Streptozotocin induced type 1 diabetic rats. Kind of series: Rat model of streptozotocin induced diabetic nephropathy: metabolic and renal parameters. In kind it is in vivo. The following applies: for Blood Creatinine / Blood Glucose / Blood Urea Nitrogen / FeNa / Fructosamine / GFR / Urinary albumin excretion: Mean±SEM. Here is the method: All substances were purchased from Sigma-Aldrich Ltd. (Budapest, Hungary). Diabetes was induced in male Wistar rats by 65 mg/bwkg streptozotocin (STZ) i.v. (dissolved in 0.1 M citrate buffer; pH 4.5). Animals were considered diabetic if blood glucose concentrations increased to 15 mmol/L within 72 h after STZ injection and remained elevated. Animals were randomly divided into groups (n=10-12/group) and received by per os (i) fluvoxamine (20 mg/bwkg/day) for 7 weeks; (ii) fluvoxamine (20 mg/bwkg/day) for 2 weeks from the 5th week of diabetes, (iii) fluvoxamine (2 mg/bwkg/day) for 2 weeks from the 5th week of diabetes; or (iv) vehicle (isotonic saline). […] Non-diabetic age-matched control animals were injected with citrate buffer and sacrificed after 7 weeks (n=8-10/group).
Before and during and at the end of treatment period rats were placed into metabolic cages to collect 24-hour urinary samples. After 2 weeks of treatment all rats were anesthesized, blood and urinary samples were collected and the kidneys were removed, weighed and a section fixed in formalin (4%, pH=7.4) for histology and the remained immediately snap-frozen for further investigations.
Serum metabolic (glucose, fructoseamine, total and HDL-cholesterol, triglycerides) and renal functional parameters from rat serum (sodium, potassium, creatinine, BUN, GFR and proteinuria) were determined with commercially available kits on a Hitachi 912 photometric chemistry analyzer. Random urine and 24-hour urine samples were also measured. Urinary protein to creatinine ratio was also calculated.

Setting [3] is: D7FLU: diabetic rats, fluvoxamine 20 mg/bwkg/day per os for 7 weeks.
The mark [4] stands for this setting: D+FLU2: diabetic rats, fluvoxamine 2 mg/bwkg/day per os for 2 weeks from the 5th week of diabetes.
The mark [5] stands for this setting: D+FLU: diabetic rats, fluvoxamine 20 mg/bwkg/day per os for 2 weeks from the 5th week of diabetes.

For the compound `COCCCC/C(=N\OCCN)c1ccc(C(F)(F)F)cc1` [fluvoxamine, 2-{[(E)-{5-Methoxy-1-[4-(trifluoromethyl)phenyl]pentylidene}amino]oxy}ethanamine], the “cytotoxicity / cell viability in myofibroblasts” value in series [1] is “not cytotoxic”. Besides, in series [2] (setting [3]), the “Blood Creatinine” value was 27.0 ± 2.24 µmol/L, the “Blood Glucose” value was 50.31 ± 3.7 ^ mmol/L, the “Blood Urea Nitrogen” value worked out at 17.3 ± 1.49 mmol/L and the FeNa stood at 0.40 ± 0.03 %. In series [2] (setting [3]), this compound gave a Fructosamine of 276 ± 11.2 µmol/L, a GFR of 6.77 ± 1.15 mL/min/100 g and a Urinary albumin excretion of 20.8 ± 9.51 mg/mL. Besides, in series [2] (setting [4]), the “Blood Creatinine” value was 31.8 ± 2.94 µmol/L, the “Blood Glucose” value was determined as 26.45 ± 3.11 mmol/L, the “Blood Urea Nitrogen” value worked out at 18.8 ± 1.68 mmol/L and the FeNa came out at 0.62 ± 0.12 %. For the same compound, in series [2] (setting [4]), the Fructosamine was 242 ± 12.8^ μmol/L, the GFR is listed as 4.73 ± 0.69^ mL/min/100 g and the Urinary albumin excretion was 24.3 ± 5.77^ mg/mL. In addition, in series [2] (setting [5]), the “Blood Creatinine” value was found to be 34.5 ± 2.74 µmol/L, the “Blood Glucose” value was found to be 36.6 ± 2.62 mmol/L, the “Blood Urea Nitrogen” value was 17.3 ± 2.30 mmol/L and the FeNa was found to be 0.90 ± 0.23 %. Also, in series [2] (setting [5]), the Fructosamine is recorded as 252 ± 18.5^ μmol/L, the GFR is 3.73 ± 0.49^ mL/min/100 g and the Urinary albumin excretion is given as 21.5 ± 4.99 mg/mL. Moreover, in series [2] (fluvoxamine treatment, specifically the long-term (7-weeks) treatment), the “renal function in diabetic rats” value is reported as “remarkably improved renal function, prevented GFR decline”.

(Values after patent US10842794B2, “Use of Sigma-1 receptor agonist compounds” (MTA TÁMOGATOTT KUTATÓCSOPORTOK IRODÁJA, priority 2014, dated 2020).)
